Laboratory results as given in patent US9637479B2, “Tartrate salt of 5-chloro-thiophene-2-carboxylic acid [(S)-2-[2-methyl-3-(2-oxo-pyrrolidin-1-yl)-benzenesulfonylamino]-3-(4-methyl-piperazin-1-yl)-3-oxo-propyl]amide” (SANOFI, priority 2013, dated 2017).
Counter-ions that a name gives are not always drawn. Like-named read-outs stand apart in the source and are kept apart here.

Legend:
Format in all cases: physicochemical
[1] = Test of stability in solution (strong oxidizing solution, H2O2 at 0.3%); proportion of main N-oxide impurity; conditions: room temperature
Description: The sodium, L-lactate and L-tartrate salts of the compound of formula (I) were analyzed after one week of storage in a strong oxidizing solution: the three compounds were maintained in a solution of H2O2 at 0.3%, at room temperature. After either 6 hours or one week, the proportion of the main N-oxide impurity of the compound of formula (I) [drawing 4] was measured.

[2] = Test of stability in the solid state (stress degradation, one week of storage); conditions: for Stress degradation conditions 80°/saturated humidity: one week of storage at 80° C. under saturated humidity; for Stress degradation conditions 80° C./dry: one week of storage at 80° C., stable = optically, chemically and physically
Description: The sodium, L-lactate and L-tartrate salts of the compound of formula (I) were analyzed after one week of storage, at: • 80° C. • 80° C. and under saturated humidity, […]

[3] = Test of solubility in different buffers
Description: The solubility of sodium, L-lactate and L-tartrate salts of the compound of formula (I) was analyzed in different buffers. The results are described in table below (solubility of the tested compound is expressed in mg/ml).

[4] = Physical properties: hygroscopicity, water uptake, behavior under saturated humidity; conditions: for Behavior under saturated humidity 80° C.: sodium and L-lactate: after 24 hours
[5] = 0.2M pH = 9 hydregenocarbonate buffer

Row | % of impurity (main N-oxide impurity) ([1]; after 1 week) | Stress degradation conditions 80°/saturated humidity [2] | Stress degradation conditions 80° C./dry [2] | Solubility ([3]; 0.1M pH = 4 phosphate buffer) | Solubility ([3]; 0.1M pH = 6.5 phosphate buffer) | Solubility ([3]; 0.1M pH = 7.4 phosphate buffer) | Solubility ([3]; 0.1N HCl) | Solubility [3, 5] | Solubility ([3]; Purified water) | Hygroscopicity [4] | Water uptake 80% RH 25° C. [4] | Behavior under saturated humidity 80° C. [4] | % of impurity (main N-oxide impurity) ([1]; after 6 hours) | Solubility ([3]; 0.1N HCl, simulated gastric fluid, 0.1N HCl, read-out: Solubility) | Solubility ([3]; hydrogenocarbonate buffer, pH 9, aqueous buffer, 0.2M pH = 9 hydregenocarbonate buffer, read-out: Solubility) | Solubility ([3]; phosphate buffer, pH 4, aqueous buffer, 0.1M pH = 4 phosphate buffer, read-out: Solubility) | Solubility ([3]; phosphate buffer, pH 6.5, aqueous buffer, 0.1M pH = 6.5 phosphate buffer, read-out: Solubility) | Solubility ([3]; phosphate buffer, pH 7.4, aqueous buffer, 0.1M pH = 7.4 phosphate buffer, read-out: Solubility) | Solubility ([3]; purified water, water, Purified water, read-out: Solubility) | Compound
1 | 6.9% after 1 week | slight degradation | stable* | >10000 µg/mL | >10000 µg/mL | 9800 µg/mL | >10000 µg/mL | 8500 µg/mL | >10000 µg/mL | Hygroscopic | 2.5% | Gel formation-amorphous | – | – | – | – | – | – | – | Cc1c(N2CCCC2=O)cccc1S(=O)(=O)N[C@@H](CNC(=O)c1ccc(Cl)s1)C(=O)N1CCN(C)CC1 [L-lactate salt, 5-chloro-thiophene-2-carboxylic acid [(S)-2-[2-methyl-3-(2-oxo-pyrrolidin-1-yl)-benzenesulfonylamino]-3-(4-methyl-piperazin-1-yl)-3-oxo-propyl]amide]
2 | 0.77% after 1 week | stable | stable* | >10000 µg/mL | >10000 µg/mL | >10000 µg/mL | >10000 µg/mL | 8300 µg/mL | >10000 µg/mL | Slightly | 0.9% | Stable 7 days | – | – | – | – | – | – | – | Cc1c(N2CCCC2=O)cccc1S(=O)(=O)N[C@@H](CNC(=O)c1ccc(Cl)s1)C(=O)N1CCN(C)CC1 [L-tartrate salt, 5-chloro-thiophene-2-carboxylic acid [(S)-2-[2-methyl-3-(2-oxo-pyrrolidin-1-yl)-benzenesulfonylamino]-3-(4-methyl-piperazin-1-yl)-3-oxo-propyl]amide]
3 | – | huge degradation | stable* | – | – | – | – | – | – | Highly | 31.5% | Deliquescence | 25.4% after 6 hours | > 10000 µg/mL | > 10000 µg/mL | 8900 µg/mL | 6500 µg/mL | 6900 µg/mL | > 10000 µg/mL | Cc1c(N2CCCC2=O)cccc1S(=O)(=O)N[C@@H](CNC(=O)c1ccc(Cl)s1)C(=O)N1CCN(C)CC1 [Sodium salt, 5-chloro-thiophene-2-carboxylic acid [(S)-2-[2-methyl-3-(2-oxo-pyrrolidin-1-yl)-benzenesulfonylamino]-3-(4-methyl-piperazin-1-yl)-3-oxo-propyl]amide]
